Measured values as given in the supplement of paper PMC10307832.

How the values were obtained:
Assay in all cases: relative viability (nuclei count vs DMSO), 5 days (fraction); higher = more cells survive
[1] = test system: 201T
How it was run: (§1)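 Lung cancer cell lines were seeded in 1536-well plates and dosed by pin tool the next day, with either a single drug or a fixed anchor-drug dose combined with five library-drug doses (not always all listed) spaced in √10 steps. Five days later, one step fixed the cells and stained their nuclei (final 0.05% Triton X-100, 1% formaldehyde, 1 ug/ml Hoechst), and nuclei were counted on 4× images. Relative viability is the nuclei count in treated wells divided by the count in vehicle wells, and each value is the median of duplicate plates.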

[2] = test system: BEN
How it was run: as §1

[3] = test system: HCC-44
How it was run: as §1

[4] = test system: HCC-827
How it was run: as §1

[5] = test system: HOP-62
How it was run: as §1

[6] = test system: LCLC-103H
How it was run: as §1

[7] = test system: LCLC-97TM1
How it was run: as §1

[8] = test system: LXF-289
How it was run: as §1

[9] = test system: NCI-H1395
How it was run: as §1

[10] = test system: NCI-H1437
How it was run: as §1

[11] = test system: NCI-H1650
How it was run: as §1

[12] = test system: NCI-H1793
How it was run: as §1

[13] = test system: NCI-H1944
How it was run: as §1

[14] = test system: NCI-H2087
How it was run: as §1

[15] = test system: NCI-H2405
How it was run: as §1

[16] = test system: NCI-H3122
How it was run: as §1

[17] = test system: NCI-H322M
How it was run: as §1

[18] = test system: NCI-H647
How it was run: as §1

[19] = test system: NCI-H727
How it was run: as §1

[20] = test system: RERF-LC-KJ
How it was run: as §1

[21] = test system: SK-LU-1
How it was run: as §1

NC(=O)Nc1cc(-c2cccc(F)c2)sc1C(=O)N[C@H]1CCCNC1 [AZD7762] + Nc1ncn([C@H]2C[C@H](O)[C@@H](CO)O2)c(=O)n1 [Decitabine] (partner 2 µM) gave a relative viability ([1]; first compound 0.01 µM) of 0.831, a relative viability ([1]; first compound 0.03162 µM) of 0.872 and a relative viability ([1]; first compound 0.1 µM) of 0.903. It also gave a relative viability ([1]; first compound 0.3162 µM) of 0.909, a relative viability ([1]; first compound 1 µM) of 0.938 and a relative viability ([2]; first compound 0.01 µM) of 0.801. It also gave a relative viability ([2]; first compound 0.03162 µM) of 0.984, a relative viability ([2]; first compound 0.1 µM) of 0.874 and a relative viability ([2]; first compound 0.3162 µM) of 0.872. It also gave a relative viability ([2]; first compound 1 µM) of 0.673, a relative viability ([3]; first compound 0.01 µM) of 0.994 and a relative viability ([3]; first compound 0.03162 µM) of 0.959. It also gave a relative viability ([3]; first compound 0.1 µM) of 1.01, a relative viability ([3]; first compound 0.3162 µM) of 0.987 and a relative viability ([3]; first compound 1 µM) of 1.08. It also gave a relative viability ([4]; first compound 0.01 µM) of 0.312, a relative viability ([4]; first compound 0.03162 µM) of 0.428 and a relative viability ([4]; first compound 0.1 µM) of 0.362. For the same molecule, the relative viability ([4]; first compound 0.3162 µM) was 0.338, the relative viability ([4]; first compound 1 µM) was 0.233 and the relative viability ([5]; first compound 0.01 µM) was 0.216. For the same molecule, the relative viability ([5]; first compound 0.03162 µM) was 0.23, the relative viability ([5]; first compound 0.1 µM) was 0.248 and the relative viability ([5]; first compound 0.3162 µM) was 0.284. It also gave a relative viability ([5]; first compound 1 µM) of 0.299, a relative viability ([6]; first compound 0.01 µM) of 0.766 and a relative viability ([6]; first compound 0.03162 µM) of 0.824. It also gave a relative viability ([6]; first compound 0.1 µM) of 0.764, a relative viability ([6]; first compound 0.3162 µM) of 0.725 and a relative viability ([6]; first compound 1 µM) of 0.829. For the same molecule, the relative viability ([7]; first compound 0.01 µM) was 0.259, the relative viability ([7]; first compound 0.03162 µM) was 0.265 and the relative viability ([7]; first compound 0.1 µM) was 0.273. For the same molecule, the relative viability ([7]; first compound 0.3162 µM) was 0.303, the relative viability ([7]; first compound 1 µM) was 0.346 and the relative viability ([8]; first compound 0.01 µM) was 0.322. For the same molecule, the relative viability ([8]; first compound 0.03162 µM) was 0.476, the relative viability ([8]; first compound 0.1 µM) was 0.486 and the relative viability ([8]; first compound 0.3162 µM) was 0.619. It also gave a relative viability ([8]; first compound 1 µM) of 0.55, a relative viability ([9]; first compound 0.01 µM) of 0.866 and a relative viability ([9]; first compound 0.03162 µM) of 0.727. For the same molecule, the relative viability ([9]; first compound 0.1 µM) was 0.65, the relative viability ([9]; first compound 0.3162 µM) was 0.476 and the relative viability ([9]; first compound 1 µM) was 0.354. The relative viability ([10]; first compound 0.01 µM) was 0.638, the relative viability ([10]; first compound 0.03162 µM) was 0.622 and the relative viability ([10]; first compound 0.1 µM) was 0.721. It also gave a relative viability ([10]; first compound 0.3162 µM) of 0.656, a relative viability ([10]; first compound 1 µM) of 0.57 and a relative viability ([11]; first compound 0.01 µM) of 0.606. It also gave a relative viability ([11]; first compound 0.03162 µM) of 0.593, a relative viability ([11]; first compound 0.1 µM) of 0.62 and a relative viability ([11]; first compound 0.3162 µM) of 0.477. The relative viability ([11]; first compound 1 µM) was 0.284, the relative viability ([12]; first compound 0.01 µM) was 0.437 and the relative viability ([12]; first compound 0.03162 µM) was 0.551. It also gave a relative viability ([12]; first compound 0.1 µM) of 0.689, a relative viability ([12]; first compound 0.3162 µM) of 1.28 and a relative viability ([12]; first compound 1 µM) of 0.39. It also gave a relative viability ([13]; first compound 0.01 µM) of 0.46, a relative viability ([13]; first compound 0.03162 µM) of 0.494 and a relative viability ([13]; first compound 0.1 µM) of 0.442. For the same molecule, the relative viability ([13]; first compound 0.3162 µM) was 0.497, the relative viability ([13]; first compound 1 µM) was 0.44 and the relative viability ([14]; first compound 0.01 µM) was 0.313. For the same molecule, the relative viability ([14]; first compound 0.03162 µM) was 0.378, the relative viability ([14]; first compound 0.1 µM) was 0.411 and the relative viability ([14]; first compound 0.3162 µM) was 0.475. It also gave a relative viability ([14]; first compound 1 µM) of 0.332, a relative viability ([15]; first compound 0.01 µM) of 0.806 and a relative viability ([15]; first compound 0.03162 µM) of 0.777. It also gave a relative viability ([15]; first compound 0.1 µM) of 0.808, a relative viability ([15]; first compound 0.3162 µM) of 0.765 and a relative viability ([15]; first compound 1 µM) of 0.487. The relative viability ([16]; first compound 0.01 µM) was 0.451, the relative viability ([16]; first compound 0.03162 µM) was 0.427 and the relative viability ([16]; first compound 0.1 µM) was 0.442. It also gave a relative viability ([16]; first compound 0.3162 µM) of 0.415, a relative viability ([16]; first compound 1 µM) of 0.434 and a relative viability ([17]; first compound 0.01 µM) of 0.813. It also gave a relative viability ([17]; first compound 0.03162 µM) of 0.789, a relative viability ([17]; first compound 0.1 µM) of 0.801 and a relative viability ([17]; first compound 0.3162 µM) of 0.783. It also gave a relative viability ([17]; first compound 1 µM) of 0.457, a relative viability ([18]; first compound 0.01 µM) of 0.475 and a relative viability ([18]; first compound 0.03162 µM) of 0.501. It also gave a relative viability ([18]; first compound 0.1 µM) of 0.441, a relative viability ([18]; first compound 0.3162 µM) of 0.356 and a relative viability ([18]; first compound 1 µM) of 0.156. For the same molecule, the relative viability ([19]; first compound 0.01 µM) was 1.01, the relative viability ([19]; first compound 0.03162 µM) was 1.11 and the relative viability ([19]; first compound 0.1 µM) was 0.895. For the same molecule, the relative viability ([19]; first compound 0.3162 µM) was 0.959, the relative viability ([19]; first compound 1 µM) was 0.536 and the relative viability ([20]; first compound 0.01 µM) was 0.743. For the same molecule, the relative viability ([20]; first compound 0.03162 µM) was 0.793, the relative viability ([20]; first compound 0.1 µM) was 0.962 and the relative viability ([20]; first compound 0.3162 µM) was 0.845. It also gave a relative viability ([20]; first compound 1 µM) of 0.611, a relative viability ([21]; first compound 0.01 µM) of 0.609 and a relative viability ([21]; first compound 0.03162 µM) of 0.782. For the same molecule, the relative viability ([21]; first compound 0.1 µM) was 0.49, the relative viability ([21]; first compound 0.3162 µM) was 0.281 and the relative viability ([21]; first compound 1 µM) was 0.204.
